Blank lines part the entries; values can stand above or below the molecule they belong to.
Legend:
[1] = molecular target: T1, PMM1 (phosphomannomutase1) (Homo sapiens, UniProt Q92871); test: thermal shift assay, Sypro Orange; type: binding; conditions: 0-1 mM Glc-1,6-P2; MgCl2 1 mM, pH 7.5
T1 construct: recombinant, E. coli BL21(DE3), purified as in earlier work (DEAE, butyl Sepharose); dimer; no tag mentioned
T1 sequence (Q92871 2-262): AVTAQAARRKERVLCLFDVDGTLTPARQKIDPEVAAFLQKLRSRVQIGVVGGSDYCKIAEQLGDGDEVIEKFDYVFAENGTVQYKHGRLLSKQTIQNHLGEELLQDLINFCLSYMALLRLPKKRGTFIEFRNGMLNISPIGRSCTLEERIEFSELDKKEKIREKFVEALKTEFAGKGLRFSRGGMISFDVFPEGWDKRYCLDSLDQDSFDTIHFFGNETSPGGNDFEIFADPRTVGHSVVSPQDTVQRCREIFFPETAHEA

[2] = molecular target: T2, PMM2 (phosphomannomutase2) (Homo sapiens, UniProt O15305); test: thermal shift assay, Sypro Orange; type: binding; conditions: 0-1 mM Glc-1,6-P2; MgCl2 1 mM, pH 7.5
T2 construct: recombinant, E. coli BL21(DE3), purified as in earlier work; no tag mentioned
T2 sequence (O15305 2-246): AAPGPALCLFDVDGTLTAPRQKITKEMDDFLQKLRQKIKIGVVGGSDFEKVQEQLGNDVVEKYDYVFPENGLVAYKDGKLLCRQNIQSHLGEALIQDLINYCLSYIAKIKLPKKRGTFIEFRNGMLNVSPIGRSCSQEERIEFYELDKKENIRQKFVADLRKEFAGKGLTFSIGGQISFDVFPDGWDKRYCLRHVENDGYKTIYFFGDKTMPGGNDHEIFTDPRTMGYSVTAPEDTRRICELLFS

[3] = molecular target: T2, PMM2 (phosphomannomutase2); test: coupled NADPH assay of phosphoglucomutase activity; type: biochemical; conditions: 27 μM Glc-1,6-P2; MgCl2 5 mM, pH 7.5, 32°C
[4] = molecular target: T1, PMM1 (phosphomannomutase1); test: coupled NADPH assays of phosphoglucomutase and Glc-1,6-P2 phosphatase activity; type: biochemical; conditions: PGM: 40 μM Glc-1-P, 27 μM Glc-1,6-P2, phosphatase: 0.145 mM Glc-1,6-P2

Tm [2]: The bis-phosphate hexose binds PMM2
SMILES: O=P(O)(O)OC[C@H]1O[C@H](OP(=O)(O)O)[C@H](O)[C@@H](O)[C@@H]1O [Glc-1,6-P2]
Tm [1]: effect of Glc-1,6-P2 on the melting temperature of PMM1 is seen only at very high concentrations

SMILES: O=P(O)(O)O[C@H]1O[C@H](CO)[C@@H](O)[C@H](O)[C@H]1O [Glc-1-P]
Km [3]: 8.2 ± 0.7 µM

SMILES: O=P(O)(O)C(Cl)(Cl)P(=O)(O)O [clodronate, (Dichloro-phosphono-methyl)phosphonic acid]
activity at 2.8 mM clodronate [4]: clodronate as a novel specific inhibitor of PMM1 that decreases both PGM and Glc-1,6-P2-ase activities
